Data as given in patent US9521846B2, “Template-fixed peptidomimetics with antimicrobial activity” (priority 2006, dated 2016).
Values after ≈ are worked out from the molar mass of the structure shown. Read-outs that look alike come from different tables or passages of the source. Non-standard residues stand in square brackets, D forms with d. Residues, ends and D or L forms follow the SMILES beside them. Dab = NCC[C@H](N)C(=O)O

Assays:
[1] = tested on: human red blood cells (hRBC); assay: Hemolysis; type: cell-based
[2] = tested on: HELA cells (Acc57); assay: Cytotoxicity assay, MTT reduction (LC 50, GI 50); type: cell-based
How it was run: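 Read-out was MTT reduction (A595) after 48 h peptide exposure (12.5–50 μM, triplicates) of HeLa cells plated at 7.0×10^3/well and precultured 24 h. Growth % was normalised to a time-zero reading. Linear trend interpolation gave the concentration at −50% growth (LC50) and at 50% growth (GI50).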

[3] = tested on: P. aeruginosa
[4] = Plasma stability, rat plasma; type: in vitro ADME
[5] = Plasma stability, human plasma; type: in vitro ADME
[6] = tested on: Pseudomonas aeruginosa P1021913; type: cell-based
How it was run: (§1)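 Antibacterial activity by modified NCCLS broth microdilution in Mueller-Hinton broth + 0.02% BSA. Inoculum was about 10^6 CFU/ml before 1:1 mixing with two-fold serial peptide dilutions.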

[7] = tested on: Pseudomonas aeruginosa P8191900; type: cell-based
How it was run: as §1

[8] = tested on: Pseudomonas aeruginosa P1021903; type: cell-based
How it was run: as §1

[9] = tested on: Pseudomonas aeruginosa IMP 1 Livermore 3140; type: cell-based
How it was run: as §1

[10] = tested on: P. aeruginosa ATCC 27853; type: cell-based, Pseudomonas aeruginosa
How it was run: as §1

[11] = tested on: Pseudomonas aeruginosa (ATCC 27853); assay: In vivo septicemia assay; parameters: species or system CD-1 mice; settings: groups of 6 mice
Procedure: Groups of 6 CD-1 (Crl.) derived male mice weighing 24±2 g were used. The mice were each inoculated intravenously (IV) with an LD90-100 of Pseudomonas aeruginosa (ATCC 27853) (9×10^6 CFU/0.5 ml/mouse) in brain heart infusion broth without 5% mucin. Compound at doses of 5, 2.5, 1, 0.5, 0.25 and 0.1 mg/kg, vehicle (0.9% NaCl, 10 ml/kg) was administered subcutaneously (SC) to test animals at 1 hour after bacterial inoculation. Also, an additional group was treated twice with compound at a dose of 5 mg/kg at 1 and 6 hours after bacterial inoculation. Mortality was recorded once daily for 7 days following the bacterial inoculation and an increase of survival of the animals by 50 percent or more (^3 50%) after the bacterial inoculation, relative to vehicle control, indicates significant antimicrobial effect. The MED (ED50) was determined by nonlinear regression using Graph-Pad Prism (Graph Pad Software, USA).
Septicaemia experiment in mice: LD90-100 of Pseudomonas aeruginosa (ATCC 27853) (9×10^6 CFU/0.5 ml/mouse IV and after 1 h Ex. 1 s.c.
Septicaemia experiment in mice: LD90-100 of Pseudomonas aeruginosa (ATCC 27853) (9×10^6 CFU/0.5 ml/mouse IV), and after 1 and 5 h Ex. 40 s.c.
Septicaemia experiment in mice: LD90-100 of Pseudomonas aeruginosa (ATCC 27853) (9×10^6 CFU/0.5 ml/mouse IV), and after 1 and 5 h Ex. 50 s.c.

[12] = average over the five P. aeruginosa strains, Mueller-Hinton broth

CC[C@H](C)[C@@H]1NC(=O)[C@H](Cc2c[nH]c3ccccc23)NC(=O)[C@H]([C@@H](C)O)NC(=O)[C@@H]2CCCN2C(=O)[C@H]2CCCN2C(=O)[C@H](CCCCN)NC(=O)[C@H](C)NC(=O)[C@H](CCN)NC(=O)[C@H](CCN)NC(=O)[C@H](Cc2c[nH]c3ccccc23)NC(=O)[C@H](CCN)NC(=O)[C@H](CCN)NC(=O)[C@H](CCCCN)NC(=O)[C@H](CCN)NC1=O [Example 28] (cyclo(TWI[Dab]K[Dab][Dab]W[Dab][Dab]AK[dP]P))
Hemolysis at 100 μg/ml [1]; 100: 0.1% | Cytotoxicity GI50 Hela cells [2]: 50 µM | Average MIC [3]: 0.12 µg/mL | Stability rat Plasma t1/2 [4]: 5 h | Stability human Plasma t1/2 [5]: 5 h | MIC P. aeruginosa P1021913 ([6]; P1021913): 0.16 µg/mL (≈ 0.0994 µM) | MIC P. aeruginosa P8191900 ([7]; P8191900): 0.10 µg/mL (≈ 0.0622 µM) | MIC P. aeruginosa P1021903 ([8]; P1021903): 0.07 µg/mL (≈ 0.0435 µM) | MIC P. aeruginosa IMP1 Livermore 3140 ([9]; IMP 1 Livermore 3140): 0.24 µg/mL (≈ 0.149 µM) | MIC P. aeruginosa ATCC 27853 ([10]; ATCC 27853): 0.04 µg/mL (≈ 0.0249 µM)

Example 50: backbone-cyclized; P1-P12 Glu-Trp-Ile-Gln-Lys-Dab-Dab-Ser-Dab-Dab-Ala-Ser; template DPro-LPro; SEQ ID NO: 50 (cyclo(EWIQK[Dab][Dab]S[Dab][Dab]AS[dP]P); SMILES CC[C@H](C)[C@@H]1NC(=O)[C@H](Cc2c[nH]c3ccccc23)NC(=O)[C@H](CCC(=O)O)NC(=O)[C@@H]2CCCN2C(=O)[C@H]2CCCN2C(=O)[C@H](CO)NC(=O)[C@H](C)NC(=O)[C@H](CCN)NC(=O)[C@H](CCN)NC(=O)[C@H](CO)NC(=O)[C@H](CCN)NC(=O)[C@H](CCN)NC(=O)[C@H](CCCCN)NC(=O)[C@H](CCC(N)=O)NC1=O)
Dead ([11]; 2 × 0.1 mg/kg, after 1 and 5 h): 6 | Survivors ([11]; 2 × 0.1 mg/kg, after 1 and 5 h): 0 | Dead ([11]; 2 × 0.3 mg/kg, after 1 and 5 h): 6 | Survivors ([11]; 2 × 0.3 mg/kg, after 1 and 5 h): 0 | Dead ([11]; 2 × 1 mg/kg, after 1 and 5 h): 5 | Survivors ([11]; 2 × 1 mg/kg, after 1 and 5 h): 1 | Dead ([11]; 2 × 3 mg/kg, after 1 and 5 h): 3 | Survivors ([11]; 2 × 3 mg/kg, after 1 and 5 h): 3 | Dead ([11]; 2 × 10 mg/kg, after 1 and 5 h): 0 | Survivors ([11]; 2 × 10 mg/kg, after 1 and 5 h): 6 | Cytotoxicity GI50 Hela cells [2]: 50 µM | Average MIC [3, 12]: 0.56 µg/mL | MIC P. aeruginosa P1021913 ([6]; Mueller-Hinton broth): 0.50 µg/mL | MIC P. aeruginosa P8191900 ([7]; Mueller-Hinton broth): 0.13 µg/mL | MIC P. aeruginosa P1021903 ([8]; Mueller-Hinton broth): 0.06 µg/mL | MIC P. aeruginosa IMP1 Livermore 3140 ([9]; Mueller-Hinton broth): 2.00 µg/mL | MIC P. aeruginosa ATCC 27853 ([10]; Mueller-Hinton broth): 0.09 µg/mL

Gentamycin [reference compound]
Dead ([11]; 1 mg/kg, 1 h after inoculation): 0 | Survivors ([11]; 1 mg/kg, 1 h after inoculation): 6 | Dead ([11]; 2 × 1 mg/kg, after 1 and 5 h): 1 | Survivors ([11]; 2 × 1 mg/kg, after 1 and 5 h): 5

CC[C@H](C)[C@@H]1NC(=O)[C@H](Cc2c[nH]c3ccccc23)NC(=O)[C@H]([C@@H](C)O)NC(=O)[C@@H]2CCCN2C(=O)[C@H]2CCCN2C(=O)[C@H](CCN)NC(=O)[C@H](C)NC(=O)[C@H](CCN)NC(=O)[C@H](CCN)NC(=O)[C@H](Cc2c[nH]c3ccccc23)NC(=O)[C@H](CCN)NC(=O)[C@H](CCN)NC(=O)[C@H](CCCCN)NC(=O)[C@H](CCCCN)NC1=O [Example 24] (cyclo(TWIKK[Dab][Dab]W[Dab][Dab]A[Dab][dP]P))
Hemolysis at 100 μg/ml ([1]; 100 μg/ml of peptide): 0.1% | Average MIC [3, 12]: 0.14 µg/mL | Stability rat Plasma t1/2 [4]: 5 h | Stability human Plasma t1/2 [5]: 5 h | MIC P. aeruginosa P1021913 ([6]; Mueller-Hinton broth): 0.16 µg/mL (≈ 0.0994 µM) | MIC P. aeruginosa P8191900 ([7]; Mueller-Hinton broth): 0.16 µg/mL (≈ 0.0994 µM) | MIC P. aeruginosa P1021903 ([8]; Mueller-Hinton broth): 0.08 µg/mL (≈ 0.0497 µM) | MIC P. aeruginosa IMP1 Livermore 3140 ([9]; Mueller-Hinton broth): 0.24 µg/mL (≈ 0.149 µM) | MIC P. aeruginosa ATCC 27853 ([10]; Mueller-Hinton broth): 0.05 µg/mL (≈ 0.0311 µM)
